Measurements: article PMC7824383, “Organic Solution Advanced Spray-Dried Microparticulate/Nanoparticulate Dry Powders of Lactomorphin for Respiratory Delivery: Physicochemical Characterization, In Vitro Aerosol Dispersion, and Cellular Studies” (Pharmaceutics, 2020)
≈ marks a conversion by molar mass, not a printed value. Like-named read-outs stand apart in the source and are kept apart here. Square brackets hold non-standard residues; d marks the D form. Peptide text beside a SMILES is read from it. * marks the point of attachment. X1 = OC[C@H]1O[C@@H](O[C@H]2[C@H](O)[C@@H](O)[C@H](*)O[C@@H]2CO)[C@H](O)[C@@H](O)[C@H]1O

Tests used:
[1] = test system: hCMEC/D3 human cerebral microvascular endothelial cells; test: Resazurin cell viability assay, hCMEC/D3; settings: 48 h exposure, 0.1, 1, 10 and 1000 µg/mL, resazurin fluorescence, p > 0.05
[2] = test system: Normal Human Astrocytes (NHA); test: Resazurin cell viability assay, NHA; settings: NHA cells, 48 h exposure, 0.1, 1, 10 and 1000 µg/mL, resazurin fluorescence; p > 0.05
[3] = Thermal degradation study of solid-state Lactomorphin; assay type: physicochemical; settings: n = 3
Excerpt: Forced degradation is a degradation of new drug substances at conditions more severe than accelerated conditions. The FDA and ICH guidance estate the requirement of stability testing data to understand how the quality of drug changes with time under various environmental conditions. Thermal, hydrolysis, oxidation, and photodegradation are commonly used stress study conditions. Knowledge of a molecule’s stability helps select proper formulation and provide adequate storage conditions and shelf life, which is essential for regulatory documentation. As the temperature is one of the most vital factors that affect the stability of a drug material more than the other conditions, in this study, we performed thermal degradation by exposing samples of solid-state Lactomorphin to dry and wet heat.
Samples preparation were done by weighing 25 mg of Lactomorphin, transfer it into a 25 mL volumetric flask, and add 25 mL of water and shake so all the quantity dissolved. Using a calibrated micropipette, transfer 0.20 mL of this 1 mg/mL Lactomorphin stock solution into around 90 (2 mL) glass vials. Freeze-dry all vials so that all vials have accurately 0.2 mg of Lactomorphin after lyophilization. A saturated salt solution of NaCl to achieve about 75% Relative Humidity (RH) and saturated salt solution of P2O5 to reach about 0.00% RH were prepared. Thirty vials contain 0.2 mg of Lactomorphin were kept inside a separate desiccator (tightly closed 20 mL glass vial with saturated NaCl). Another set of 30 vials were kept inside the desiccator (tightly closed 20 mL glass vial with saturated P2O5). All were put in oven fixed at 62 °C temperature. To achieve equal distribution of heat inside the oven for all samples used for the degradation study, they were placed in a metallic block made, especially for this study. The rest of the vials were kept in a desiccator at −80 °C to be used as comparison(control) samples.
According to the regulatory guidelines, there is no specific concentration used for the degradation study; however, 1 mg/mL concentration is recommended. This study used three concentrations by dissolving the stability samples in 0.2 mL, 0.4 mL, and 2 mL water to achieve 1000 μg/mL, 500 μg/mL, and 100 μg/mL concentration, respectively. Analysis of the stability samples was performed every time against a freshly prepared calibration curve and comparison samples (control samples that freshly prepared and injected directly without being exposed to the force degradation conditions) at the following periods: 0.00, 0.08, 0.17, 1, 2, 4, 10, 20, 45, 94 and 133 days. All experiments at each time point and different stability conditions were done in triplicate (n = 3). The HPLC system consisted of a VARIAN ProStar model 330 PDA Detector coupled with a VARIAN ProStar Solvent delivery module and VARIAN ProStar model 430 auto-sampler. The analysis was performed by a reverse phase HPLC assay, using Inspire™ 5 μm C18, 250 × 4.6 mm HPLC Column. Ultraviolet detection was done at 280, 254 and 220 nm, but the quantitation was done at 280 nm only. Mobile phase conditions were gradient according to the above program in Section 2.2.13 and at a flow rate of 1.00 mL/min.

[4] = Equilibrium solubility by shake-flask method (SFM); assay type: physicochemical
Procedure: The solubility of the unionized form of raw (unprocessed) Lactomorphin was determined by the shake-flask method (SFM) using conditions similar to previously reported. For each reported solubility result, three independent SFM experiments were carried out in parallel in the following solvents (purified water, PBS, NS, methanol, and ethanol). For each experiment, the solid sample of Lactomorphin was added using a spatula to a specific volume of each solvent in closed, light-protected glass vials while shaking the vial until a heterogeneous system of the solid sample and the solvent was achieved. Samples were visually inspected to ensure that solid Lactomorphin was still in excess in each vial. The solution containing solid excess of the Lactomorphin was then capped and allowed to agitate using the shaker for 24 h at room temperature (25 °C). The presence of precipitation was checked after several hours. If dissolution was complete, more solid Lactomorphin was added to the vial.
The pH values of Lactomorphin ampholyte suspensions were adjusted to the isoelectric point to determine the solubilities of the zwitterionic species point and to assure the predominant presence of the unionized form of Lactomorphin. The pH of each Lactomorphin suspension in each solvent (except in methanol and ethanol, which were just measured) was adjusted by using 0.1 M NaOH/0.1 M HCl to a value of 8.5. The pH values for all vials were checked after saturation, several hours after the shaking process started, and after equilibrium was achieved. Separating saturated solution and precipitate by sedimentation was performed, which is more accurate than filtration since the filtration step is labor-intensive and tedious, it has been a known issue that drug loss can occur through membrane absorption during filtration in the SFM [32]. Aliquots of supernatant were then taken out with a micropipette from all saturated solutions and diluted with each corresponding solvent. Analytical HPLC measured the concentration of Lactomorphin in each aliquot in against freshly prepared calibration curves. As mentioned above, three independent SFMs were made for each reported result. Thus, the reported results were the mean of three measured concentrations and the standard deviation of the mean (n = 3, mean ± Standard deviation).
The HPLC system was LC-2010HT next generation HPLC (SHIMADZU Tokyo, Japan), comprised of a degassing unit, low-pressure gradient unit, pump unit, mixer, ultra-fast autosampler, column oven, and a UV-VIS detector with a thermostatted flow cell. System. The analysis was performed by a reverse phase HPLC assay, using Phenomenex Prodigy 5 um ODS (3) 250 × 4.6 mm HPLC Column. Ultraviolet detection was done at 280 nm. Mobile phase conditions were gradient of acetonitrile (CH3CN) in water (H2O) with 0.1% trifluoroacetic acid (F3CCOOH) at a 1 mL/min flow rate. The injection volume was 20 μL; the retention time for Lactomorphin was ~8.5 min. Quantification was determined using peak area and calculated from a nine-point standard curve; standard curve points were prepared by dilution in water.

[5] = Partition coefficient (LogP) by shake-flask, 1-octanol/water; assay type: physicochemical; settings: shake-flask 1-octanol/water (equal volumes, water saturated with octanol), 1 mg/mL, pH 8.5, shaken 24 h then 24 h standing, HPLC-UV 280 nm, mean ± SD, n = 3
Procedure: Lipophilicity is a critical physicochemical property that affects ADMET (absorption, distribution, metabolism, excretion, and toxicity). SFM is the most known lipophilicity measurement method, which is based on liquid-liquid extraction using the n-octanol/water system. The partition coefficient of Lactomorphin was measured at the room, and physiological temperatures via SFM using conditions similar to previously reported. The Lactomorphin powder was dispensed into two individual glass vials containing equal volumes of 1-octanol and water to achieve a 1 mg/mL concentration. The water solution in each vial was saturated with octanol before analysis. The pH was measured and fixed to 8.5 value to assure the predominant presence of the unionized form of Lactomorphin. The pH stability in both vials was regularly checked throughout the experiment. The first vial was shaken for 24 h at room temperature. The other one was shaken for 24 h while kept in an incubator at 37 °C. After 24 h, the vials shaking was stopped. […] A sample from each layer was carefully withdrawn and analyzed by the analytical HPLC to measure the concentration of Lactomorphin in each layer then calculate the Partition coefficient (P) and logP using the following equations:(4) P =[neutral solute]oct/[neutral solute]Aq (5) LogP=log10[neutral solute]oct/[neutral solute]Aq […]

[6] = test system: RPMI 2650 human nasal epithelial cells; test: Resazurin cell viability assay, RPMI 2650; settings: RPMI2650 cells, 48 h exposure, 0.1, 1, 10 and 1000 µg/mL, resazurin fluorescence 544/590 nm; p > 0.05
[7] = test system: H441 lung adenocarcinoma cells; test: Resazurin cell viability assay, H441; settings: 48 h exposure, 0.1, 1, 10 and 1000 µg/mL, resazurin fluorescence, p > 0.05
[8] = Residual water content by Karl Fischer titration; assay type: physicochemical; settings: Karl Fischer coulometric titration, 1–2 mg in anhydrous methanol; mean ± SD, n = 3
Procedure: Using conditions similar to previously reported, the residual water content of all powders was quantified by Karl Fischer titration (KFT) […] using a TitroLine® 7500 trace titrator (SI Analytics, Mainz, Germany). Around 1–2 mg of sample was dissolved in 0.5 mL AQUA STAR anhydrous methanol. The sample solution was injected into a reaction cell filled with Hydranal®Coulomat AD reagent; then, a simple calculation obtained the sample’s water content. All experiments were done in triplicate (n = 3).

CC(C)C[C@H](NC(=O)[C@H](Cc1ccccc1)NC(=O)CNC(=O)[C@H](NC(=O)[C@@H](N)Cc1ccc(O)cc1)[C@H](C)O)C(=O)N[C@@H](CO[C@@H]1O[C@H](CO)[C@@H](O[C@@H]2O[C@H](CO)[C@H](O)[C@H](O)[C@H]2O)[C@H](O)[C@H]1O)C(N)=O [Lactomorphin, H2N-Tyr-D-Thr- Gly-Phe-Leu-Ser-(O-β-Lactoside)-CONH2] (H-Y[dT]GFLS(X1)-NH2)
relative cell viability% vs control [1]: no statistically significant difference
relative cell viability% vs control [2]: no statistically significant difference
Lactomorphin stability% (remaining%) ([3]; solid (lyophilised 0.2 mg), 62 °C / 75% RH, 2 hrs, reconstituted in water to 100, 500, 1000 μg/mL, HPLC-UV 280 nm vs fresh controls): 59%
Lactomorphin stability% (remaining%) ([3]; solid, 62 °C / 75% RH, 4 hrs, reconstituted 100, 500, 1000 μg/mL, HPLC-UV 280 nm): 29%
Lactomorphin stability% (remaining%) ([3]; solid, 62 °C / 75% RH, 24 h, reconstituted 100, 500, 1000 μg/mL, HPLC-UV 280 nm): 6%
Lactomorphin stability% (remaining%) ([3]; solid, 62 °C / RH 0.00%, 10 days, HPLC-UV 280 nm): around 60%
Lactomorphin stability% (remaining%) ([3]; solid, 62 °C / RH 0.00%, day 94, HPLC-UV 280 nm): ~ 10%
Lactomorphin stability% (remaining%) ([3]; solid, 62 °C / RH 0.00%, day 133, HPLC-UV 280 nm): ~ 10%
Lactomorphin stability% (remaining%) ([3]; solid, 62 °C / RH 0.00%, up to day 45, HPLC-UV 280 nm): around 60%
Solubility (USP) Definition, PBS ([4]; PBS, pH 8.50 (adjusted), 25 °C): Freely soluble (Fs) (all these solubility values fell in the range of 100–1000 mg/mL, which is the freely soluble category)
solubility thermodynamic at 24 h ([4]; aqueous buffer, thermodynamic from solid, water, NS and PBS, shake-flask, pH 8.5, 25 °C, read-out: aqueous solubility): > 100 mg/mL
Solubility (USP) Definition, Ethanol ([4]; ethanol, pH 7.30 (measured), 25 °C): Sparingly soluble (sps)
Calculated Log S, NS ([4]; from experimental solubility, footnote: S in mMoleunit, NS, pH 8.50): −0.9
Calculated Log S, PBS ([4]; from experimental solubility, footnote: S in mMoleunit, PBS, pH 8.50): −0.3
Calculated Log S, Ethanol ([4]; from experimental solubility, footnote: S in mMoleunit, ethanol): −1.7
Calculated Log S, Methanol ([4]; from experimental solubility, footnote: S in mMoleunit, methanol): −1.3
Calculated Log S, Water ([4]; from experimental solubility, footnote: S in mMoleunit, water, pH 8.50): −0.6
Solubility (USP) Definition, Methanol ([4]; methanol, pH 7.27 (measured), 25 °C): Soluble (s)
solubility thermodynamic at 24 h ([4]; normal saline (NS), pH 8.5, saline or isotonic, thermodynamic from solid, thermodynamic shake-flask, excess solid, normal saline, pH 8.50 (adjusted), shaken 24 h, 25 °C, HPLC-UV 280 nm, mean ± SD, n = 3, read-out: Solubility in NS): 140.4 ± 0.32 mg/mL (≈ 139 mM)
Solubility (USP) Definition, NS ([4]; normal saline, pH 8.50 (adjusted), 25 °C): Freely soluble (Fs) (all these solubility values fell in the range of 100–1000 mg/mL, which is the freely soluble category)
solubility thermodynamic at 24 h ([4]; pH 8.5, aqueous buffer, thermodynamic from solid, thermodynamic shake-flask, excess solid, PBS, pH 8.50 (adjusted), shaken 24 h, 25 °C, HPLC-UV 280 nm, mean ± SD, n = 3, read-out: Solubility in PBS): 570.3 ± 2 mg/mL (≈ 565 mM)
solubility thermodynamic at 24 h ([4]; pH 8.5, thermodynamic from solid, thermodynamic shake-flask, excess solid raw Lactomorphin, purified water, pH 8.50 (adjusted with 0.1 M NaOH/HCl), shaken 24 h, 25 °C, sedimentation, HPLC-UV 280 nm, mean ± SD, n = 3, read-out: Solubility in Water): 267 ± 6 mg/mL (≈ 264 mM)
Solubility in Ethanol ([4]; thermodynamic shake-flask, excess solid, ethanol, pH 7.30 (measured), shaken 24 h, 25 °C, HPLC-UV 280 nm, mean ± SD, n = 3): 18.00 ± 0.00 mg/mL (≈ 17.8 mM)
Solubility in Methanol ([4]; thermodynamic shake-flask, excess solid, methanol, pH 7.27 (measured), shaken 24 h, 25 °C, HPLC-UV 280 nm, mean ± SD, n = 3): 45.67 ± 1.00 mg/mL (≈ 45.2 mM)
Solubility (USP) Definition, Water ([4]; water, pH 8.50 (adjusted), 25 °C): Freely soluble (Fs) (all these solubility values fell in the range of 100–1000 mg/mL, which is the freely soluble category)
Experimental LogP at Room Temperature (25 °C) ([5]; 25 °C): −2.40 ± 0.00
Experimental LogP at Physiological Temperature (37 °C) ([5]; 37 °C): −2.33 ± 0.02
relative cell viability% vs control [6]: no statistically significant difference
relative cell viability% vs control [7]: no statistically significant difference

OC[C@H]1O[C@H](O[C@H]2O[C@H](CO)[C@@H](O)[C@H](O)[C@H]2O)[C@H](O)[C@@H](O)[C@@H]1O [Raw Trehalose, D (+)-Trehalose dihydrate]
Water % (w/w) [8]: 8.11 ± 1.96 % (w/w)
